Experimental data reported in US9670227B2, “Thienopyrimidine derivatives, a process for their preparation and pharmaceutical compositions containing them” (LES LABORATOIRES SERVIER, priority 2013, dated 2017).
Where two headings read alike, the source gives them in different places.

Assays:
Mcl-1 protein = Mcl-1 protein (UniProtKB primary accession number: Q07820) (Homo sapiens, UniProt Q07820); assay: Inhibition of Mcl-1 by fluorescence polarisation, Method 1; assay type: binding; conditions: read-out: IC50 (M) Mcl-1 FP
Mcl-1 protein, sequence (Q07820 whole entry): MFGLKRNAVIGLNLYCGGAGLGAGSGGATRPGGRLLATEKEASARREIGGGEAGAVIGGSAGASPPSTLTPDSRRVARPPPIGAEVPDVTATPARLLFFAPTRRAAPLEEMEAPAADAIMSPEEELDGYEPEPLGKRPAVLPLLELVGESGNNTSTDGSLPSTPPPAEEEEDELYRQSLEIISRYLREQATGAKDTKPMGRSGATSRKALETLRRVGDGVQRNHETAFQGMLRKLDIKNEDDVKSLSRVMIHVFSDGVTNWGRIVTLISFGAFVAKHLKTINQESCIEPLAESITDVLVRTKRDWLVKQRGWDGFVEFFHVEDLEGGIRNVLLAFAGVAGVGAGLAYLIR
Method in brief: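 Fluorescence polarisation competition with an 11-point compound dilution series (final DMSO 5%). Mcl-1 protein at 5 nM and fluorescein-labelled ligand at 1 nM (final) in 10 mM HEPES, 150 mM NaCl, 0.05% Tween 20, pH 7.4.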

[1] = system: H929 multiple myeloma tumour line; assay: In vitro cytotoxicity, Microculture Tetrazolium Assay; assay type: cell-based
Procedure: The cytotoxicity studies were carried out on the H929 multiple myeloma tumour line.
The cells are distributed onto microplates and exposed to the test compounds for 48 hours.

[2] = fluorescence polarisation, Method 1, or Method 2
[3] = Homo sapiens, NCI-H929, 48 h, H929 cells, 48 hours exposure, MTT, read-out: IC50 (μM) MTT H929
[4] = Homo sapiens, NCI-H929, 48 h, read-out: IC50 (μM) MTT H929, H929 cells, 48 hours exposure, MTT
[5] = H929 cells, 48 hours exposure, MTT, read-out: IC50 (μM) MTT H929
[6] = fluorescence polarisation test, Method 2 values are underlined in the patent (underlining not visible here)

SMILES	IC50 (Mcl-1 protein; [2]) [M]	IC50 [1, 3] [µM]	IC50 [1, 4] [µM]	IC50 [1, 5] [µM]	IC50 (Mcl-1 protein; [6]) [M]
Cc1c(-c2c(-c3ccc(F)cc3)sc3ncnc(OC(Cc4ccccc4OCC(F)(F)F)C(=O)O)c23)ccc(OCC2CCCN2C)c1Cl (single isomer, unassigned) [Example 658, (2R)-2-{[(5Sa)-5-{3-chloro-2-methyl-4-[((2S or R)-1-methylpyrrolidin-2-yl)methoxy]phenyl}-6-(4-fluorophenyl)thieno[2,3-d]pyrimidin-4-yl]oxy}-3-[2-(2,2,2-trifluoroethoxy)phenyl]propanoic acid]	1.8e-08	1.71	–	–	–
COc1ccccc1C[C@@H](Oc1ncnc2sc(-c3ccc(F)cc3)c(-c3cc(F)c(OCCN4CCN(C)CC4)c(Cl)c3C)c12)C(=O)O (single isomer, unassigned) [Example 664]	3.86e-08	–	2.08	–	–
COc1ccccc1C[C@@H](Oc1ncnc2sc(-c3cccc(F)c3F)c(-c3ccc(C#CCN4CCN(C)CC4)c(Cl)c3C)c12)C(=O)O (single isomer, unassigned) [Example 717]	2.7e-08	–	0.865	–	–
COc1ccccc1-c1nccc(COc2ccccc2CC(Oc2ncnc3sc(-c4ccc(Oc5ccccc5)cc4)c(-c4ccc(OCCN5CCN(C)CC5)c(Cl)c4C)c23)C(=O)O)n1 (single isomer, unassigned) [Example 759]	9.06e-09	0.054	–	–	–
COc1ccc(-c2sc3ncnc(OC(Cc4ccccc4OCc4ccnc(-c5ccccc5OC)n4)C(=O)O)c3c2-c2ccc(OCCN3CCN(C)CC3)c(Cl)c2C)cc1 (single isomer, unassigned) [Example 760]	1.18e-09	–	–	0.004	–
COc1ccc(-c2sc3ncnc(OC(Cc4ccccc4OCc4ccnc(-c5ccccc5OC)n4)C(=O)O)c3c2-c2ccc(OCCN3CCN(C)CC3)c(Cl)c2C)cc1 (single isomer, unassigned) [Example 761]	1.07e-07	–	–	0.148	–
COc1ccccc1-c1nccc(COc2ccccc2CC(Oc2ncnc3sc(-c4ccc(OCCN5CCOCC5)cc4)c(-c4ccc(OCCN5CCN(C)CC5)c(Cl)c4C)c23)C(=O)O)n1 (single isomer, unassigned) [Example 764]	1.35e-09	0.019	–	–	–
COc1ccccc1-c1nccc(COc2ccccc2CC(Oc2ncnc3sc(-c4ccc(OCCc5ccccc5)cc4)c(-c4ccc(OCCN5CCN(C)CC5)c(Cl)c4C)c23)C(=O)O)n1 (single isomer, unassigned) [Example 766]	3.66e-09	0.037	–	–	–
Cc1c(-c2c(-c3ccc(F)cc3)sc3ncnc(OC(Cc4ccccc4OCC(F)F)C(=O)O)c23)ccc(OCCN2CCN(C)CC2)c1Cl [Example 4, (2R)-2-{[(5Sa)-5-{3-chloro-2-methyl-4-[2-(4-methylpiperazin-1-yl)ethoxy]phenyl}-6-(4-fluorophenyl)thieno[2,3-d]pyrimidin-4-yl]oxy}-3-[2-(2,2-difluoroethoxy)phenyl]propanoic acid]	–	0.192	–	–	1.6e-08
COc1cc(COc2ccccc2CC(Oc2ncnc3sc(-c4ccc(F)cc4)c(-c4ccc(OCCN5CCN(C)CC5)c(Cl)c4C)c23)C(=O)O)nc(-c2ccccc2)n1 [Example 7, (2R)-2-{[(5Sa)-5-{3-chloro-2-methyl-4-[2-(4-methylpiperazin-1-yl)ethoxy]phenyl}-6-(4-fluorophenyl)thieno[2,3-d]pyrimidin-4-yl]oxy}-3-{2-[(6-methoxy-2-phenylpyrimidin-4-yl)methoxy]phenyl}propanoic acid]	–	0.066	–	–	8.6e-09
COc1cc(COc2ccccc2CC(Oc2ncnc3sc(-c4ccc(F)cc4)c(-c4ccc(OCCN5CCN(C)CC5)c(Cl)c4C)c23)C(=O)O)nc(OC)n1 [Example 8, (2R)-2-{[(5Sa)-5-{3-chloro-2-methyl-4-[2-(4-methylpiperazin-1-yl)ethoxy]phenyl}-6-(4-fluorophenyl)thieno[2,3-d]pyrimidin-4-yl]oxy}-3-{2-[(2,6-dimethoxypyrimidin-4-yl)methoxy]phenyl}propanoic acid]	–	0.145	–	–	1.6e-08
Cc1cc(COc2ccccc2CC(Oc2ncnc3sc(-c4ccc(F)cc4)c(-c4ccc(OCCN5CCN(C)CC5)c(Cl)c4C)c23)C(=O)O)no1 [Example 9, (2R)-2-{[(5Sa)-5-{3-chloro-2-methyl-4-[2-(4-methylpiperazin-1-yl)ethoxy]phenyl}-6-(4-fluorophenyl)thieno[2,3-d]pyrimidin-4-yl]oxy}-3-{2-[(5-methyl-1,2-oxazol-3-yl)methoxy]phenyl}propanoic acid]	–	0.363	–	–	9.3e-09
Cc1c(-c2c(-c3ccc(F)cc3)sc3ncnc(OC(Cc4ccccc4OCc4ccc(F)cn4)C(=O)O)c23)ccc(OCCN2CCN(C)CC2)c1Cl [Example 10, (2R)-2-{[(5Sa)-5-{3-chloro-2-methyl-4-[2-(4-methylpiperazin-1-yl)ethoxy]phenyl}-6-(4-fluorophenyl)thieno[2,3-d]pyrimidin-4-yl]oxy}-3-{2-[(5-fluoropyridin-2-yl)methoxy]phenyl}propanoic acid]	–	0.275	–	–	9.7e-09
Cc1c(-c2c(-c3ccc(F)cc3)sc3ncnc(OC(Cc4ccccc4OCc4cccc(-c5ccco5)n4)C(=O)O)c23)ccc(OCCN2CCN(C)CC2)c1Cl [Example 11, (2R)-2-{[(5Sa)-5-{3-chloro-2-methyl-4-[2-(4-methylpiperazin-1-yl)ethoxy]phenyl}-6-(4-fluorophenyl)thieno[2,3-d]pyrimidin-4-yl]oxy}-3-(2-{[6-(furan-2-yl)pyridin-2-yl]methoxy}phenyl)propanoic acid]	–	0.13	–	–	4.4e-08
Cc1c(-c2c(-c3ccc(F)cc3)sc3ncnc(OC(Cc4ccccc4OCc4cccc(N5CCOCC5)n4)C(=O)O)c23)ccc(OCCN2CCN(C)CC2)c1Cl [Example 12, (2R)-2-{[(5Sa)-5-{3-chloro-2-methyl-4-[2-(4-methylpiperazin-1-yl)ethoxy]phenyl}-6-(4-fluorophenyl)thieno[2,3-d]pyrimidin-4-yl]oxy}-3-(2-{[6-(morpholin-4-yl)pyridin-2-yl]methoxy}phenyl)propanoic acid]	–	0.076	–	–	1.6e-08
CCOc1cccc(COc2ccccc2CC(Oc2ncnc3sc(-c4ccc(F)cc4)c(-c4ccc(OCCN5CCN(C)CC5)c(Cl)c4C)c23)C(=O)O)n1 [Example 13, (2R)-2-{[(5Sa)-5-{3-chloro-2-methyl-4-[2-(4-methylpiperazin-1-yl)ethoxy]phenyl}-6-(4-fluorophenyl)thieno[2,3-d]pyrimidin-4-yl]oxy}-3-{2-[(6-ethoxypyridin-2-yl)methoxy]phenyl}propanoic acid]	–	0.146	–	–	2.2e-08
Cc1c(-c2c(-c3ccc(F)cc3)sc3ncnc(OC(Cc4ccccc4OCc4ccn(CC5CCCCC5)n4)C(=O)O)c23)ccc(OCCN2CCN(C)CC2)c1Cl [Example 15, (2R)-2-{[(5Sa)-5-{3-chloro-2-methyl-4-[2-(4-methylpiperazin-1-yl)ethoxy]phenyl}-6-(4-fluorophenyl)thieno[2,3-d]pyrimidin-4-yl]oxy}-3-(2-{[1-(cyclohexylmethyl)-1H-pyrazol-3-yl]methoxy}phenyl)propanoic acid]	–	0.494	–	–	3.7e-08
Cc1cc(COc2ccccc2CC(Oc2ncnc3sc(-c4ccc(F)cc4)c(-c4ccc(OCCN5CCN(C)CC5)c(Cl)c4C)c23)C(=O)O)ccn1 [Example 16, (2R)-2-{[(5Sa)-5-{3-chloro-2-methyl-4-[2-(4-methylpiperazin-1-yl)ethoxy]phenyl}-6-(4-fluorophenyl)thieno[2,3-d]pyrimidin-4-yl]oxy}-3-{2-[(2-methylpyridin-4-yl)methoxy]phenyl}propanoic acid]	–	0.095	–	–	5.9e-09
Cc1c(-c2c(-c3ccc(F)cc3)sc3ncnc(OC(Cc4ccccc4OCc4ccnc(C(F)(F)F)c4)C(=O)O)c23)ccc(OCCN2CCN(C)CC2)c1Cl [Example 17, (2R)-2-{[(5Sa)-5-{3-chloro-2-methyl-4-[2-(4-methylpiperazin-1-yl)ethoxy]phenyl}-6-(4-fluorophenyl)thieno[2,3-d]pyrimidin-4-yl]oxy}-3-(2-{[2-(trifluoromethyl)pyridin-4-yl]methoxy}phenyl)propanoic acid]	–	0.062	–	–	1.2e-08
Cc1c(-c2c(-c3ccc(F)cc3)sc3ncnc(OC(Cc4ccccc4OCc4ccnc(-c5cccs5)c4)C(=O)O)c23)ccc(OCCN2CCN(C)CC2)c1Cl [Example 18, (2R)-2-{[(5Sa)-5-{3-chloro-2-methyl-4-[2-(4-methylpiperazin-1-yl)ethoxy]phenyl}-6-(4-fluorophenyl)thieno[2,3-d]pyrimidin-4-yl]oxy}-3-(2-{[2-(thiophen-2-yl)pyridin-4-yl]methoxy}phenyl)propanoic acid]	–	0.076	–	–	8.3e-09
Cc1c(-c2c(-c3ccc(F)cc3)sc3ncnc(OC(Cc4ccccc4OCc4ccnc(Cl)c4)C(=O)O)c23)ccc(OCCN2CCN(C)CC2)c1Cl [Example 19, (2R)-2-{[(5Sa)-5-{3-chloro-2-methyl-4-[2-(4-methylpiperazin-1-yl)ethoxy]phenyl}-6-(4-fluorophenyl)thieno[2,3-d]pyrimidin-4-yl]oxy}-3-{2-[(2-chloropyridin-4-yl)methoxy]phenyl}propanoic acid]	–	0.064	–	–	4.4e-09
Cc1c(-c2c(-c3ccc(F)cc3)sc3ncnc(OC(Cc4ccccc4OCc4ccnc(N5CCOCC5)c4)C(=O)O)c23)ccc(OCCN2CCN(C)CC2)c1Cl [Example 20, (2R)-2-{[(5Sa)-5-{3-chloro-2-methyl-4-[2-(4-methylpiperazin-1-yl)ethoxy]phenyl}-6-(4-fluorophenyl)thieno[2,3-d]pyrimidin-4-yl]oxy}-3-(2-{[2-(morpholin-4-yl)pyridin-4-yl]methoxy}phenyl)propanoic acid]	–	0.08	–	–	6.4e-09
